Source: patent publication US10118936B2, “Arginase inhibitors and methods of use” (ASTRAZENECA AB, priority 2009, dated 2018)
“Also recorded” adds a separate entry of the source. Structures can show the parent of a compound that is named as a salt.

Legend:
human arginase I (hArgI) = target: T1, human arginase I (hArgI) (Homo sapiens, UniProt P05089); experiment: QuantiChrom colorimetric arginase inhibition assay, human arginase I; format: biochemical; details: IC50 from 12-concentration curve converted to Ki by Cheng-Prusoff equation
T1 sequence (P05089 1-322): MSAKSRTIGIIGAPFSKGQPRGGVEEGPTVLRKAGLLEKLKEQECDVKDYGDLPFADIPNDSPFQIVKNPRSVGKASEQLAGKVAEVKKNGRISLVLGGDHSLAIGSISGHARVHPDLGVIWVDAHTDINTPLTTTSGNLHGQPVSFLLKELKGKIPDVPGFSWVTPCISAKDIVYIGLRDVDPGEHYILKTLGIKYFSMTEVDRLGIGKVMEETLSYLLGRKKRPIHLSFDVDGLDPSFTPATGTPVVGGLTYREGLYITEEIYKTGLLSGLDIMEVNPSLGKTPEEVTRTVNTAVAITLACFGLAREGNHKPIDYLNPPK
Description: (§1) Quantitative determination of arginase activity was performed by a colorimetric method using the QuantiChrom™ Arginase Assay Kit available from BioAssay Systems (Hayward, Calif., Catalog No. DARG-200), which was used according to the manufacture's protocol. Briefly, the method utilizes a chromogen that forms a colored complex specifically with urea produced in the arginase reaction. […] The intensity of the color is directly proportional to the arginase activity in the sample.
(§2) The rate of urea production was measured in the presence of twelve different concentrations of each potential inhibitor compound. The half maximal inhibitory concentration (IC50) was determined by constructing a dose-response curve. As IC50 values are dependent upon the measurement conditions, the IC50 values are converted to the inhibitor binding affinity (Ki) using the Cheng-Prusoff equation and the measured affinity constant (Km) of L-arginine.

[1] = target: T2, human arginase II (hArgII) (Homo sapiens, UniProt P78540); experiment: QuantiChrom colorimetric arginase inhibition assay, human arginase II; format: biochemical; details: IC50 from 12-concentration curve converted to Ki by Cheng-Prusoff equation
T2 sequence (P78540 23-354): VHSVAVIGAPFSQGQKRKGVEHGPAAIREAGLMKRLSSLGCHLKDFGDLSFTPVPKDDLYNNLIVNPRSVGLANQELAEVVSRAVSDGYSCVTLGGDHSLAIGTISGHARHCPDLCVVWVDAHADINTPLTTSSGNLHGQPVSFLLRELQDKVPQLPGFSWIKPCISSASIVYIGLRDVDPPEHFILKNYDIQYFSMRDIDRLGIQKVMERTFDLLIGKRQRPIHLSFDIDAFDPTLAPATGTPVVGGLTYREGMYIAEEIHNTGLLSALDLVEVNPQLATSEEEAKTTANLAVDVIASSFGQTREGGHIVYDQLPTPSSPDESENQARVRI
Description: as §1, §2

arginase = experiment: Arginase inhibition, potency comparisons (isoform not stated); format: biochemical, human; details: relative potency statements in text
Description: Quantitative determination of arginase activity was performed by a colorimetric method using the QuantiChrom™ Arginase Assay Kit available from BioAssay Systems (Hayward, Calif., Catalog No. DARG-200), which was used according to the manufacture's protocol. Briefly, the method utilizes a chromogen that forms a colored complex specifically with urea produced in the arginase reaction. See, Mellerup, “Colorimetric method for rapid determination of serum arginase,” Clin. Chem. 13, 900-08 (1967). The intensity of the color is directly proportional to the arginase activity in the sample.
The rate of urea production was measured in the presence of twelve different concentrations of each potential inhibitor compound. The half maximal inhibitory concentration (IC50) was determined by constructing a dose-response curve. As IC50 values are dependent upon the measurement conditions, the IC50 values are converted to the inhibitor binding affinity (Ki) using the Cheng-Prusoff equation and the measured affinity constant (Km) of L-arginine. See, e.g., Cheng et al., “Relationship between the inhibition constant (K1) and the concentration of inhibitor which causes 50 percent inhibition (I50) of an enzymatic reaction,” Biochem. Pharmacol. 22, 3099-108 (1973).
In Table 6, the Ki values reflect the potency of these molecules to inhibit the catalytic activity of arginase to produce urea from the substrate L-arginine. […] That is, racemic materials were compared to racemic controls. Thus, there are several examples that have similar potencies to Rac-ABH.
Shortening the alkyl chain by one carbon atom as in the phenoxyethyl compound 1ad also results in a potency loss. Thus, there appears to be definitive structure-activity features that results in increased potency at the molecular target, arginase, in these α,α-disubstituted derivatives.

[2] = system: corpus cavernosum of the diabetic person; details: ex vivo; cited from earlier work
[3] = system: experimental autoimmune encephalomyelitis; details: cited from earlier work
[4] = system: opossum internal anal sphincter muscle; details: cited from earlier work
erectile response = details: live male rabbits; cited from earlier work
[5] = system: genitalia engorgement response; details: live female rabbits; cited from earlier work
[6] = system: rabbit and human penile corpus cavernosum; details: cited from earlier work
[7] = system: airway hyperresponsiveness; details: guinea pigs, allergic asthma model, nebulizer treatment; cited from earlier work
[8] = cited from earlier work
microvasculature = details: subcutaneous administration in humans; cited from earlier work

Compound	Ki (human arginase I (hArgI))	Ki [1]	other results
N[C@](CO)(CCCCB(O)O)C(=O)O (single isomer, unassigned) [Compound 1as]	100 to 500 nM	100 to 500 nM	–
NC(CCCCB(O)O)(Cc1ccccc1)C(=O)O (stereo not shown) [Compound 1a, 2-Amino-2-benzyl-6-boronohexanoic acid hydrochloride]	100 to 500 nM	100 to 500 nM	–
Cl.NC(CCCO)(CCCCB(O)O)C(=O)O (stereo not shown) [Compound 1ak, 2-Amino-6-borono-2-(3-hydroxypropyl)hexanoic acid hydrochloride]	–	–	potency as arginase inhibitor, compared in words (arginase): less potent
Cl.NC(CCCCB(O)O)(CCCOc1ccccc1)C(=O)O (stereo not shown) [Compound 1d]	–	–	potency as arginase inhibitor, compared in words (arginase): as potent as Rac-ABH
CC(=O)NCCOCCC(N)(CCCCB(O)O)C(=O)O (stereo not shown) [Compound 38b, 2-(2-(2-Acetamidoethoxy)ethyl)-2-amino-6-boronohexanoic acid]	100 to 500 nM	100 to 500 nM	–
COc1cccc(NC(=O)NCCOCCC(N)(CCCCB(O)O)C(=O)O)c1 (stereo not shown) [Compound 39a, 2-Amino-6-borono-2-(2-(2-(3-(3-methoxyphenyl)ureido)ethoxy)ethyl)hexanoic acid]	10 to 100 nM	10 to 100 nM	–
COc1cccc(NC(=O)N2CCN(CCCC(N)(CCCCB(O)O)C(=O)O)CC2)c1 (stereo not shown) [Compound 39c, 2-Amino-6-borono-2-(3-(4-(3-methoxyphenylcarbamoyl)piperazin-1-yl)propyl)hexanoic acid]	10 to 100 nM	10 to 100 nM	–
Cc1ccc(S(=O)(=O)NCCCCC(N)(CCCCB(O)O)C(=O)O)cc1 (stereo not shown) [Compound 40a, 2-Amino-6-borono-2-(4-(4-methylphenylsulfonamido)butyl)hexanoic acid]	10 to 100 nM	10 to 100 nM	–
CC(N)(CCNC(N)=NO)C(=O)O (stereo not shown) [Compound 54a, 2-Amino-4-(2-hydroxyguanidino)-2-methylbutanoic acid dihydrochloride]	100 to 500 nM	100 to 500 nM	–
N=C(NO)NCC[C@H](N)C(=O)O [Nor-NOHA, N^ω-hydroxy-nor-1-arginine, reference compound]	–	100 to 500 nM	–
O=C1CCc2ccccc2O1 [dihydrocoumarin]	–	–	half-life ([8]; 37° C. in the stomach): about 1 hour
CC[C@H](C)C(=O)O[C@H]1C[C@@H](C)C=C2C=C[C@H](C)[C@H](CC[C@@H]3C[C@@H](O)CC(=O)O3)[C@H]21 [lovastatin, reference compound]	–	–	half-life of lactone hydrolysis ([8]; gastric pH and temperature): about 1 hour
S-(2-boronoethyl)-1-cysteine [BEC]	–	–	vasodilation and circulation (microvasculature): vasodilatory and enhances circulation

More lines, main results first:

Ki (human arginase I (hArgI))	Ki [1]	Compound	other results
0.1 to 10 nM	10 to 100 nM	NC(CCCCB(O)O)C(=O)O (racemic) [Rac-ABH, reference compound]	–
0.1 to 10 nM	0.1 to 10 nM	N[C@@](CO)(CCCCB(O)O)C(=O)O (single isomer, unassigned) [Compound 1ar]	potency as arginase inhibitor, compared in words (arginase): most potency as an arginase inhibitor by two orders of magnitude compared to compound 1as; also recorded: as potent as ABH; also recorded: almost two orders of magnitude) more potent than the other enantiomer
0.1 to 10 nM	0.1 to 10 nM	N[C@@H](CCCCB(O)O)C(=O)O [ABH, 2(S)-amino-6-borono-hexanoic acid]	NO biosynthesis [2]: restores NO biosynthesis; disease score [3]: improves the disease score of animals; relaxation of internal anal sphincter muscle [4]: relax this muscle; erectile response (erectile response): enhances the erectile response in live male rabbits; engorgement response in the genitalia [5]: enhances the engorgement response in the genitalia of live female rabbits; NO-dependent relaxation of corpus cavernosum [6]: enhances the NO-dependent relaxation of this tissue; airway hyperresponsiveness [7]: prevents airway hyperresponsiveness
10 to 100 nM	10 to 100 nM	Cl.NC(CCCCB(O)O)(CCOCc1ccccc1)C(=O)O (stereo not shown) [Compound 1aa, 2-Amino-2-(benzyloxyethyl)-6-boronohexanoic acid hydrochloride]	potency as arginase inhibitor, compared in words (arginase): potency is lost
10 to 100 nM	10 to 100 nM	NC(CCCCB(O)O)(CCOc1cccc(Cl)c1)C(=O)O (stereo not shown) [Compound 1ad, 2-Amino-6-borono-2-(2-(3-chlorophenoxy)ethyl)hexanoic acid]	potency as arginase inhibitor, compared in words (arginase): potency loss
0.1 to 10 nM	10 to 100 nM	CC(N)(CCCCB(O)O)C(=O)O (stereo not shown) [Compound 1ao, 2-Amino-6-borono-2-methylhexanoic acid hydrochloride]	–
10 to 100 nM	10 to 100 nM	CC(C)CC(N)(CCCCB(O)O)C(=O)O (stereo not shown) [Compound 1ap, 2-Amino-6-borono-2-isobutylhexanoic acid hydrochloride]	–
0.1 to 10 nM	10 to 100 nM	NC(CO)(CCCCB(O)O)C(=O)O (stereo not shown) [Compound 1aq, 2-Amino-6-borono-2-(hydroxymethyl)hexanoic acid hydrochloride]	–
10 to 100 nM	10 to 100 nM	CCC(=O)CC(N)(CCCCB(O)O)C(=O)O (stereo not shown) [Compound 1aw, 2-Amino-6-borono-2-(2-oxobutyl)hexanoic acid hydrochloride]	–
10 to 100 nM	10 to 100 nM	NC(CCCCB(O)O)(CC(=O)c1ccccc1)C(=O)O (stereo not shown) [Compound 1ax, 2-Amino-6-borono-2-(2-oxo-2-phenylethyl)hexanoic acid hydrochloride]	–
0.1 to 10 nM	0.1 to 10 nM	NC(CCCCB(O)O)(CCCC1CCNCC1)C(=O)O (stereo not shown) [Compound 1az, 2-Amino-6-borono-2-(3-(piperidin-4-yl)propyl)hexanoic acid]	–
10 to 100 nM	10 to 100 nM	NC(CCCCB(O)O)(CCCN1CCNCC1)C(=O)O (stereo not shown) [Compound 1ba]	–
0.1 to 10 nM	0.1 to 10 nM	NCCCCC(N)(CCCCB(O)O)C(=O)O (stereo not shown) [Compound 1bb, 2,6-Diamino-2-(4-boronobutyl)hexanoic acid]	–
0.1 to 10 nM	0.1 to 10 nM	Cl.NC(CCCCB(O)O)(CCCOc1ccccc1)C(=O)O (stereo not shown) [Compound 1d, 2-Amino-6-(borono-2-(3-phenoxypropyl)hexanoic acid hydrochloride]	–
10 to 100 nM	10 to 100 nM	NC(CCCCB(O)O)(CCCCc1ccccc1)C(=O)O (stereo not shown) [Compound 1e, 2-Amino-6-borono-2-(4-phenylbutyl)hexanoic acid]	–
0.1 to 10 nM	10 to 100 nM	NC(CCCCB(O)O)(CCCOc1ccc(F)cc1)C(=O)O (stereo not shown) [Compound 1h, 2-Amino-6-borono-2-(3-(4-fluorophenoxy)propyl)hexanoic acid]	–
10 to 100 nM	10 to 100 nM	N#Cc1ccc(C(=O)NCCOCCC(N)(CCCCB(O)O)C(=O)O)cc1 (stereo not shown) [Compound 38a, 2-Amino-6-borono-2-(2-(2-(4-cyanobenzamid)ethoxy)ethyl)hexanoic acid trifluoroacetate]	–
